Measured values from patent US12357585B2, “Cannabigerol and pharmaceutical compositions comprising cannabigerol for use in the treatment of insomnia” (AKASHA CORPORATION, priority 2019, dated 2025).

Tested on: panel members
Test: Panel-mediated testing of Cannabis accessions with defined cannabinoid profiles (panel N=67, plus anecdotal evidence)
Type: in vivo, human
Description: This method allowed deduction, and therefore, for the first time, the introduction of a new chemotaxonomic classification system merely based on the cannabinoid composition of the plant samples (strains). 15 chemotypes are defined and many more sub-chemotypes are lately added. The samples given to panel members (accessions) contained Cannabis flos, the dried flower tips of the female Cannabis plant. […] All the 45,000 different “strains” were collected and compared to the panel data and data derived from retrospective (meta-) research and anecdotal evidence mainly originated from users, for both recreative and medicinal usage, from the Netherlands. Accession from Spain is included as a parameter and seemed important for the chemotaxonomic scheme for Cannabis species.
The anecdotal evidence is derived from and the panel members are selected from persons, men and women, of the age of 18 till 72 years old. They consumed cannabis joints or vapor having defined cannabinoid profiles, and record the effect during time. Monitoring takes 24 hours, to include data about wear-off problems after night (the next day). The cannabinoids according to the invention may for example be consumed as follows: • 1—Administered as Cannabis simplex per 50 mg unit dose for self-titration. […]

For `CCCCCc1cc(O)c(C/C=C(\C)CCC=C(C)C)c(O)c1` [Cannabigerol], the “sleep attained by subjects” value (all subjects, in high concentration range "narcotic") was “good or very good deep” and the Effects (panel session, vapor, joints or tea potion, ad libitum, effects dosage and patient related) was ““indica” or “stoned” effects; drowsiness”.
